The target in this experiment is T1, murine αvβ6 (Mus musculus, UniProt P43406+Q9Z0T9).
T1 construct: purchased Bio-Techne
T1 sequence (P43406 31-988 limits assumed): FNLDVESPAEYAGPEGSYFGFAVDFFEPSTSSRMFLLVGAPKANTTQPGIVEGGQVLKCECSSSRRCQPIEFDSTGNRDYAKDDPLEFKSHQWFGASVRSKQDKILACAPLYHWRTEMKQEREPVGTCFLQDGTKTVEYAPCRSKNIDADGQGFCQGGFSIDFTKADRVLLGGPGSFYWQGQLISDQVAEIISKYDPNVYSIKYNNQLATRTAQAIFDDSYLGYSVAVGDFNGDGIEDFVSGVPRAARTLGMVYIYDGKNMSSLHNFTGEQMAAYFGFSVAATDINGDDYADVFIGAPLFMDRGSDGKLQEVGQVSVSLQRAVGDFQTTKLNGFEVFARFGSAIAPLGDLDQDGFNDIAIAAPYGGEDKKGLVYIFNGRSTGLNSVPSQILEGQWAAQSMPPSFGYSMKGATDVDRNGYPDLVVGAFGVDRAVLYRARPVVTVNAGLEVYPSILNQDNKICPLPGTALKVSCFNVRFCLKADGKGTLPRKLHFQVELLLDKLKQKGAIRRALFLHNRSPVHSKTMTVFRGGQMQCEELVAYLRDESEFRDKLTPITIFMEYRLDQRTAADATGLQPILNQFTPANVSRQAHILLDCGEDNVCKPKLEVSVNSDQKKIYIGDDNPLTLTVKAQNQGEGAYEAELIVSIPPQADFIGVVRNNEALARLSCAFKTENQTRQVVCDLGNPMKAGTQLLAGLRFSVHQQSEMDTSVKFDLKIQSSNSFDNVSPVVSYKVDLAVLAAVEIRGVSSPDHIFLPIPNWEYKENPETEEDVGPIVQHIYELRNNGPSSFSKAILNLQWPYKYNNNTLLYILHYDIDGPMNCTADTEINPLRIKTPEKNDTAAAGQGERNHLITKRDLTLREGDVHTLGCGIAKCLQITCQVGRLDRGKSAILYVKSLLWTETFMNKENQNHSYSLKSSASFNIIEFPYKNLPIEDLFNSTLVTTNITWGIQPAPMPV
T1 sequence (Q9Z0T9 22-707 limits assumed): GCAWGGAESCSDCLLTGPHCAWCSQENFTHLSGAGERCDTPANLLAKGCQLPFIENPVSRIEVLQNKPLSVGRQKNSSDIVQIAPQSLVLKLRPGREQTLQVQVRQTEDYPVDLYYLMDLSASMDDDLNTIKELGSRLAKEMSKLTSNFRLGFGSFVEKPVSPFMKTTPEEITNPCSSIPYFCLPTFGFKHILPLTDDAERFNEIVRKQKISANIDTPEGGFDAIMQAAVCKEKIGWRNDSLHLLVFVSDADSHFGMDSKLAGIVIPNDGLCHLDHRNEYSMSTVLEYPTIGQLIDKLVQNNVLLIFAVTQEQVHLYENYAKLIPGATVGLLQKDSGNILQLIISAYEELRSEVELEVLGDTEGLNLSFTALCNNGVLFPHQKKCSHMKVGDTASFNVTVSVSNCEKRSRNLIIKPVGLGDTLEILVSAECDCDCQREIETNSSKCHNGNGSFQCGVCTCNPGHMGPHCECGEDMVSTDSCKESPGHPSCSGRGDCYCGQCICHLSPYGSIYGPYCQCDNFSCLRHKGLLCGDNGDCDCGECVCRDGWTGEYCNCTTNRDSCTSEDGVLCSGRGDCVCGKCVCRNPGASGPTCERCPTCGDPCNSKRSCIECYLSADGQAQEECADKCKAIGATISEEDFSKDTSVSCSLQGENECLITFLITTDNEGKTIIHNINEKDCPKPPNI
The experiment in a line: direct integrin binding assay of peptide-IRDye conjugates, murine αvβ6-coated plates. The conditions noted are these: plates coated with recombinant murine αvβ6; conjugate 0.01-100 nM, 1 h; bound NIR fluorescence; mean ± SE, n = 3 experiments. The method, then: The affinity of peptide-IRDye conjugates for αvβ6 and αvβ8 integrins was determined by a direct binding assay using microtiter plates coated with αvβ6 or αvβ8 (Bio-Techne). After 1 h of incubation, the plates were washed; bound fluorescence was quantified by scanning the plates with an Odyssey CLx near-infrared fluorescence imaging system (LI-COR).
A control conjugate with a cysteine in place of the peptide was also prepared in parallel. The identity of the purified products, called 5a-IRDye, 2a-IRDye, and Cys-IRDye, was confirmed by mass spectrometry analysis (Table S1). In addition, the purity and identity of 5a-IRDye was monitored by liquid chromatography–mass spectrometry (LC-MS). […]
that the product consist of a single peak at 230 and 735 nm with the expected molecular weight (purity >95%) (Figure S3A).
The simplified molecular-input line-entry system (SMILES) of 5a-, 2a-, Cys- and 5a-Scr- […]
The concentration of each conjugate was quantified by spectrophotometric analysis at 774 nm (molar absorption coefficient, 240,000 M-1, cm-1) (Figure S3B). The final yield of 5a-IRDye […]
Binding of peptide-IRDye conjugates to avb6 and avb8 integrin
The binding affinity of peptide-IRDye conjugates for human and murine avb6 and avb8 integrins was determined as follows: 96-well clear-bottom black microtiter plates (Corning® cat. 3601) were coated with 2 μg/ml avb6 or avb8 (50 µl/well), in Dulbecco’s phosphate-buffered saline containing Ca2+ and Mg2+ (DPBS) and left to incubate overnight at 4°C. […]
The binding of peptide-IRDye conjugates to BxPC-3, 5M7101, and HUVECs cells was analyzed as follows. […]
conjugates were added to the microtiterplates and incubated at room temperature for 1 h (see Experimental Section). After washing, bound fluorescence was measured using an Odyssey CLx (LI-COR) scanner. Representative images of the scanned plates and quantification of binding are shown. […]

Drawing on publication PMC9760430, “A stapled chromogranin A-derived peptide homes in on tumors that express αvβ6 or αvβ8 integrins” (International Journal of Biological Sciences, 2023), this text covers EC50 for three compounds.

Peptide text beside a SMILES is read from it. * marks the point of attachment. X1 = CC1(C)C(/C=C/C2=C(Oc3ccc(S(=O)(=O)O)cc3)C(=C\C=C3/N(CCCCCC(=O)NCCN4C(=O)CC(*)C4=O)c4ccc(S(=O)(=O)O)cc4C3(C)C)/CCC2)=[N+](CCCCS(=O)(=O)O)c2ccc(S(=O)(=O)[O-])cc21

For the compound `CC1(C)C(/C=C/C2=C(Oc3ccc(S(=O)(=O)O)cc3)C(=C\C=C3/N(CCCCCC(=O)NCCN4C(=O)CC(SC[C@H](N)C(=O)O)C4=O)c4ccc(S(=O)(=O)O)cc4C3(C)C)/CCC2)=[N+](CCCCS(=O)(=O)O)c2ccc(S(=O)(=O)[O-])cc21` (stereo partly drawn) [Cys-IRDye], the EC50 is > 100 nM. In the case of `CC[C@H](C)[C@H](NC(=O)[C@H](CCCNC(=N)N)NC(=O)[C@H](CC(C)C)NC(=O)[C@H](CC(=O)O)NC(=O)CNC(=O)[C@H](CCCNC(=N)N)NC(=O)[C@H](CC(C)C)NC(=O)[C@@H](NC(=O)[C@H](CCC(=O)O)NC(=O)[C@H](Cc1ccccc1)NC(=O)[C@@H](N)CSC1CC(=O)N(CCNC(=O)CCCCCN2C(=CC=C3CCCC(C=CC4=[N+](CCCCS(=O)(=O)[O-])c5ccc(S(=O)(=O)O)cc5C4(C)C)=C3Oc3ccc(S(=O)(=O)O)cc3)C(C)(C)c3cc(S(=O)(=O)O)ccc32)C1=O)[C@@H](C)O)C(=O)N[C@@H](CC(C)C)C(=O)N[C@@H](CO)C(=O)N[C@H](C(=O)N[C@@H](CC(C)C)C(=O)N[C@@H](CCCNC(=N)N)C(=O)N[C@H]1Cc2cn(nn2)CCCC[C@@H](C(=O)N[C@@H](CCCCN)C(=O)N[C@@H](CCC(=O)O)C(=O)N[C@@H](CC(C)C)C(=O)N[C@@H](CCC(N)=O)C(=O)N[C@@H](CC(=O)O)C(N)=O)NC(=O)[C@H](CC(C)C)NC(=O)[C@H](CC(N)=O)NC(=O)[C@H](CCC(N)=O)NC1=O)[C@@H](C)CC` (stereo partly drawn) [5a-IRDye] it was 0.9 ± 0.35 nM. The value for `CC[C@H](C)[C@H](NC(=O)[C@H](CCCNC(=N)N)NC(=O)[C@H](CCC(=O)O)NC(=O)[C@H](CCC(=O)O)NC(=O)CNC(=O)[C@H](CCCNC(=N)N)NC(=O)[C@H](CC(C)C)NC(=O)[C@@H](NC(=O)[C@H](CCC(=O)O)NC(=O)[C@H](Cc1ccccc1)NC(=O)[C@@H](N)CSC1CC(=O)N(CCNC(=O)CCCCCN2/C(=C\C=C3\CCCC(/C=C/C4=[N+](CCCCS(=O)(=O)O)c5ccc(S(=O)(=O)[O-])cc5C4(C)C)=C3Oc3ccc(S(=O)(=O)O)cc3)C(C)(C)c3cc(S(=O)(=O)O)ccc32)C1=O)[C@@H](C)O)C(=O)N[C@@H](CC(C)C)C(=O)N[C@@H](CO)C(=O)N[C@H](C(=O)N[C@@H](CC(C)C)C(=O)N[C@@H](CCCNC(=N)N)C(=O)N[C@@H](Cc1c[nH]cn1)C(=O)N[C@@H](CCC(N)=O)C(=O)N[C@@H](CC(N)=O)C(=O)N[C@@H](CC(C)C)C(=O)N[C@@H](CC(C)C)C(=O)N[C@@H](CCCCN)C(=O)N[C@@H](CCC(=O)O)C(=O)N[C@@H](CC(C)C)C(=O)N[C@@H](CCC(N)=O)C(=O)N[C@@H](CC(=O)O)C(N)=O)[C@@H](C)CC` (stereo partly drawn) [2a-IRDye] (H-C(X1)FETLRGEERILSILRHQNLLKELQD-NH2) was > 100 nM.

One may read the EC50 as the concentration that produces a half-maximal response.
